Values quoted from earlier work in patent publication US10332616B2, “Movable type method applied to protein-ligand binding” (University of Florida Research Foundation, Inc., priority 2013, dated 2019).

Molecular target: T4 Lysozyme mutant
Details: PDB ID 1LI2

SMILES	binding affinity (pKd)
Oc1ccccc1 [phenol]	4.04

Test system: not given
Details: experimental solvation free energy, neutral compounds test set

Exp. ΔGsolv [kcal/mol]	SMILES
-9.37	CCCOC(=O)c1ccc(O)cc1 [test2026]
-8.61	O=S1(=O)CCCC1 [test2027]
-0.8	COC(OC)(OC)C(F)(F)F [test2029]
-13.93	CC(=O)Nc1cccc(O)c1 [test3002]
-12.75	O=C(O)CCC(=O)c1ccc(-c2ccccc2)cc1 [test3003]
-10.91	CCOc1ccc(NC(C)=O)cc1 [test3005]
-6.71	Cc1c(Cl)cccc1Nc1ccccc1C(=O)O [test3019]
-6.3	O=C(O)Cc1ccccc1Nc1c(Cl)cccc1Cl [test3020]
-5.68	O=C(O)c1ccccc1Nc1cccc(C(F)(F)F)c1 [test3021]

SMILES	Exp. ΔGsolv [kcal/mol]
O=[N+]([O-])c1c(Cl)c(Cl)c(Cl)c(Cl)c1Cl [test2024]	-5.22
CC(=O)Nc1ccc(O)cc1 [test3001]	-14.83
CC(=O)Nc1ccccc1O [test3004]	-11.61
COc1ccccc1C(=O)O [test3007]	-10.32
COc1ccc(C(=O)O)cc1 [test3014]	-9.15
COc1cccc(C(=O)O)c1 [test3015]	-8.93

Same assay, conditions: experimental solvation free energy; test set with 372 neutral compounds

SMILES	Exp. ΔGsolv [kcal/mol]
O=C1NC(=O)c2ccccc21 [test2025]	-9.61
